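Method: 48-hour compound exposure of cells in 96-well plates, five concentrations, linear interpolation of endpoints. GI50: concentration for 50% inhibition of growth.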 The source made the active and inactive calls. Rule as the data show it: active = GI50 up to about 1.1 µM and inactive = higher.
Columns and labels:
Assay in all cases: NCI anticancer screen, dose series, 48 h
786-0 = system: 786-0
SN12C = system: SN12C
NCI-H522 = system: NCI-H522
OVCAR-4 = system: OVCAR-4
MDA-MB-435 = system: MDA-MB-435
PC-3 = system: PC-3
MOLT-4 = system: MOLT-4
UACC-62 = system: UACC-62
U-251 = system: U-251
TK-10 = system: TK-10
BT-549 = system: BT-549
A549 = system: A549
IGROV-1 = system: IGROV-1
HOP-92 = system: HOP-92
KM12 = system: KM12
CCRF-CEM = system: CCRF-CEM
M14 = system: M14
SK-OV-3 = system: SK-OV-3
MDA-N = system: MDA-N
SK-MEL-5 = system: SK-MEL-5
T47D = system: T47D
UACC-257 = system: UACC-257
Malme-3M = system: Malme-3M
HCT-116 = system: HCT-116
UO-31 = system: UO-31
SR = system: SR
NCI/ADR-RES = system: NCI/ADR-RES
MCF7 = system: MCF7
ACHN = system: ACHN
COLO 205 = system: COLO 205
SK-MEL-28 = system: SK-MEL-28
SNB-19 = system: SNB-19
SF-268 = system: SF-268
HOP-62 = system: HOP-62
SK-MEL-2 = system: SK-MEL-2
HT-29 = system: HT-29
SF-295 = system: SF-295
NCI-H460 = system: NCI-H460
HL-60 = system: HL-60
OVCAR-8 = system: OVCAR-8
SF-539 = system: SF-539
OVCAR-3 = system: OVCAR-3
MDA-MB-231 = system: MDA-MB-231
NCI-H226 = system: NCI-H226
Hs-578T = system: Hs-578T
NCI-H23 = system: NCI-H23
RXF 393 = system: RXF 393
RPMI-8226 = system: RPMI-8226
OVCAR-5 = system: OVCAR-5
HCC 2998 = system: HCC 2998
DU-145 = system: DU-145
HCT-15 = system: HCT-15
SNB-75 = system: SNB-75
LOX IMVI = system: LOX IMVI
CAKI-1 = system: CAKI-1
SW-620 = system: SW-620
K562 = system: K562
EKVX = system: EKVX
A498 = system: A498

CN1CCN(CN2C(=O)C3C4C=CC(C3C2=O)C2C(=O)N(CN3CCN(C)CC3)C(=O)C42)CC1 (centres undefined)
GI50 (786-0): 54 µM (inactive) | GI50 (SN12C): > 58.9 µM (inactive) | GI50 (NCI-H522): > 42.1 µM (inactive) | GI50 (OVCAR-4): > 100 µM (inactive) | GI50 (MDA-MB-435): > 74.6 µM (inactive) | GI50 (PC-3): > 84.5 µM (inactive) | GI50 (MOLT-4): 36.9 µM (inactive) | GI50 (UACC-62): 35 µM (inactive) | GI50 (U-251): > 54.5 µM (inactive) | GI50 (TK-10): > 70.3 µM (inactive) | GI50 (BT-549): 52.2 µM (inactive) | GI50 (A549): > 10 µM (inactive) | GI50 (IGROV-1): 50.6 µM (inactive) | GI50 (HOP-92): > 100 µM (inactive) | GI50 (KM12): 56.5 µM (inactive) | GI50 (CCRF-CEM): 28.6 µM (inactive) | GI50 (M14): > 51.3 µM (inactive) | GI50 (SK-OV-3): > 100 µM (inactive) | GI50 (MDA-N): > 57.3 µM (inactive) | GI50 (SK-MEL-5): 5.55 µM (inactive) | GI50 (T47D): > 68.4 µM (inactive) | GI50 (UACC-257): > 75.2 µM (inactive) | GI50 (Malme-3M): > 55.3 µM (inactive) | GI50 (HCT-116): 36.6 µM (inactive) | GI50 (UO-31): > 87.3 µM (inactive) | GI50 (SR): 32.4 µM (inactive) | GI50 (NCI/ADR-RES): > 60.4 µM (inactive) | GI50 (MCF7): 27.2 µM (inactive) | GI50 (ACHN): > 64.4 µM (inactive) | GI50 (COLO 205): 54.6 µM (inactive) | GI50 (SK-MEL-28): > 42.9 µM (inactive) | GI50 (SNB-19): > 63.1 µM (inactive) | GI50 (SF-268): > 62.1 µM (inactive) | GI50 (HOP-62): > 54.1 µM (inactive) | GI50 (SK-MEL-2): > 100 µM (inactive) | GI50 (HT-29): 22.5 µM (inactive) | GI50 (SF-295): > 82.4 µM (inactive) | GI50 (NCI-H460): > 53.8 µM (inactive) | GI50 (HL-60): 20.5 µM (inactive) | GI50 (OVCAR-8): > 100 µM (inactive) | GI50 (SF-539): > 49.3 µM (inactive) | GI50 (OVCAR-3): > 59.6 µM (inactive) | GI50 (MDA-MB-231): > 73.6 µM (inactive) | GI50 (NCI-H226): > 87.1 µM (inactive) | GI50 (Hs-578T): > 100 µM (inactive) | GI50 (NCI-H23): > 49.8 µM (inactive) | GI50 (RXF 393): 27 µM (inactive) | GI50 (RPMI-8226): 20.7 µM (inactive) | GI50 (OVCAR-5): > 100 µM (inactive) | GI50 (HCC 2998): > 57.4 µM (inactive) | GI50 (DU-145): 17.8 µM (inactive) | GI50 (HCT-15): 34 µM | GI50 (SNB-75): > 100 µM (inactive) | GI50 (LOX IMVI): 24.8 µM (inactive) | GI50 (CAKI-1): 38.1 µM (inactive) | GI50 (SW-620): 4.97 µM (inactive) | GI50 (K562): 45.7 µM (inactive) | GI50 (EKVX): > 100 µM (inactive)

Cc1cccc2c1[C@]13OC(C)[C@]4(C)CC5OC(=O)[C@@]1(C)[C@@H]5[C@]34C(=O)O2 (some centres undefined)
GI50 (786-0): > 100 µM (inactive) | GI50 (SN12C): > 100 µM (inactive) | GI50 (NCI-H522): > 100 µM (inactive) | GI50 (MDA-MB-435): > 100 µM (inactive) | GI50 (PC-3): > 100 µM (inactive) | GI50 (MOLT-4): > 100 µM (inactive) | GI50 (UACC-62): > 100 µM (inactive) | GI50 (U-251): > 100 µM (inactive) | GI50 (TK-10): > 100 µM (inactive) | GI50 (BT-549): > 100 µM (inactive) | GI50 (A498): > 100 µM (inactive) | GI50 (A549): > 100 µM (inactive) | GI50 (IGROV-1): > 100 µM (inactive) | GI50 (KM12): > 100 µM (inactive) | GI50 (CCRF-CEM): > 100 µM (inactive) | GI50 (M14): > 100 µM (inactive) | GI50 (SK-OV-3): > 100 µM (inactive) | GI50 (MDA-N): > 100 µM (inactive) | GI50 (SK-MEL-5): > 100 µM (inactive) | GI50 (T47D): > 100 µM (inactive) | GI50 (UACC-257): > 100 µM (inactive) | GI50 (Malme-3M): > 100 µM (inactive) | GI50 (HCT-116): > 100 µM (inactive) | GI50 (UO-31): > 100 µM (inactive) | GI50 (SR): > 100 µM (inactive) | GI50 (NCI/ADR-RES): > 100 µM (inactive) | GI50 (MCF7): > 100 µM (inactive) | GI50 (ACHN): > 100 µM (inactive) | GI50 (COLO 205): > 100 µM (inactive) | GI50 (SK-MEL-28): > 100 µM (inactive) | GI50 (SNB-19): > 100 µM (inactive) | GI50 (SF-268): > 100 µM (inactive) | GI50 (HOP-62): > 100 µM (inactive) | GI50 (SK-MEL-2): > 100 µM (inactive) | GI50 (HT-29): > 100 µM (inactive) | GI50 (SF-295): > 100 µM (inactive) | GI50 (NCI-H460): > 100 µM (inactive) | GI50 (HL-60): > 100 µM (inactive) | GI50 (OVCAR-8): > 100 µM (inactive) | GI50 (SF-539): > 100 µM (inactive) | GI50 (OVCAR-3): > 100 µM (inactive) | GI50 (MDA-MB-231): > 100 µM (inactive) | GI50 (NCI-H226): > 100 µM (inactive) | GI50 (Hs-578T): > 100 µM (inactive) | GI50 (NCI-H23): > 100 µM (inactive) | GI50 (RPMI-8226): > 100 µM (inactive) | GI50 (OVCAR-5): > 100 µM (inactive) | GI50 (HCC 2998): > 100 µM (inactive) | GI50 (DU-145): > 100 µM (inactive) | GI50 (HCT-15): > 100 µM | GI50 (SNB-75): > 100 µM (inactive) | GI50 (LOX IMVI): > 100 µM (inactive) | GI50 (CAKI-1): > 100 µM (inactive) | GI50 (SW-620): > 100 µM (inactive) | GI50 (K562): > 100 µM (inactive) | GI50 (EKVX): > 100 µM (inactive)
